Laboratory results from ChEMBL document CHEMBL1201862, “PubChem BioAssay data set” (2004).
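Five concentrations, 48 hours, 96-well plates. Abbreviation: GI50, concentration required for 50% inhibition of growth.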 Calls of active or inactive are those of the source. No stated cut-off is given here; in the data, active = GI50 up to about 1.1 µM and inactive = higher.

Assays:
Test in all cases: NCI anticancer screen, dose series, 48 h
MDA-N = tested on: MDA-N
NCI-H226 = tested on: NCI-H226
OVCAR-8 = tested on: OVCAR-8
HL-60 = tested on: HL-60
SF-539 = tested on: SF-539
UACC-257 = tested on: UACC-257
HOP-62 = tested on: HOP-62
SN12C = tested on: SN12C
RPMI-8226 = tested on: RPMI-8226
K562 = tested on: K562
U-251 = tested on: U-251
SK-MEL-5 = tested on: SK-MEL-5
SK-MEL-2 = tested on: SK-MEL-2
HT-29 = tested on: HT-29
NCI-H522 = tested on: NCI-H522
Malme-3M = tested on: Malme-3M
A498 = tested on: A498
NCI/ADR-RES = tested on: NCI/ADR-RES
IGROV-1 = tested on: IGROV-1
SK-OV-3 = tested on: SK-OV-3

Measured: GI50

CCOC(=O)/C(C(=S)Nc1ccccc1)=C(/N)N1CCCC1
inactive: MDA-N 31 µM | NCI-H226 > 100 µM | OVCAR-8 > 100 µM | HL-60 49.9 µM | SF-539 > 100 µM | UACC-257 > 100 µM | HOP-62 > 100 µM | SN12C > 100 µM | RPMI-8226 > 100 µM | K562 37 µM | U-251 61.2 µM | SK-MEL-5 > 100 µM | SK-MEL-2 > 100 µM | HT-29 > 100 µM | NCI-H522 > 100 µM | Malme-3M > 100 µM | A498 > 100 µM | NCI/ADR-RES > 100 µM | IGROV-1 > 100 µM

CCOC(=O)P(=O)(O)c1ccc(N(C)Cc2ccccc2)cc1
inactive: MDA-N > 100 µM | NCI-H226 > 100 µM | OVCAR-8 > 100 µM | HL-60 > 100 µM | SF-539 > 100 µM | UACC-257 > 100 µM | HOP-62 > 100 µM | SN12C > 100 µM | RPMI-8226 > 100 µM | K562 > 100 µM | U-251 > 100 µM | SK-MEL-5 > 100 µM | SK-MEL-2 > 100 µM | HT-29 > 100 µM | NCI-H522 > 100 µM | SK-OV-3 > 100 µM | Malme-3M > 100 µM | A498 > 100 µM | NCI/ADR-RES > 100 µM | IGROV-1 > 100 µM

N#Cc1c(N)nc(Sc2ccccc2N)c(C#N)c1-c1ccc(Cl)cc1
inactive: MDA-N 9.91 µM | NCI-H226 37.2 µM | OVCAR-8 9.12 µM | HL-60 > 27.5 µM | SF-539 11.8 µM | UACC-257 15.9 µM | HOP-62 3.7 µM | SN12C 13.8 µM | RPMI-8226 2.61 µM | K562 3.07 µM | U-251 7.59 µM | SK-MEL-5 12.6 µM | SK-MEL-2 5.14 µM | HT-29 7.71 µM | NCI-H522 11.6 µM | SK-OV-3 12 µM | Malme-3M 6.61 µM | A498 2.65 µM | NCI/ADR-RES 6.4 µM | IGROV-1 5.52 µM

O=C1CC[N+]2=Cc3ccccc3O[B-]2(c2ccccc2)O1 (centres undefined)
inactive: MDA-N > 100 µM | NCI-H226 > 100 µM | OVCAR-8 > 100 µM | HL-60 89.9 µM | SF-539 > 100 µM | UACC-257 > 100 µM | HOP-62 > 100 µM | SN12C > 100 µM | RPMI-8226 > 100 µM | K562 > 100 µM | U-251 > 100 µM | SK-MEL-5 97.7 µM | SK-MEL-2 > 100 µM | HT-29 > 100 µM | NCI-H522 > 100 µM | SK-OV-3 > 100 µM | Malme-3M > 100 µM | A498 > 100 µM | NCI/ADR-RES > 100 µM | IGROV-1 > 100 µM

COc1cc2oc3ccccc3c(=O)c2cc1CSc1ccccc1N
inactive: MDA-N 3.27 µM | NCI-H226 73.6 µM | OVCAR-8 33.5 µM | HL-60 3.83 µM | SF-539 45.3 µM | UACC-257 47.5 µM | HOP-62 22.8 µM | SN12C 46.8 µM | RPMI-8226 9.46 µM | K562 3.91 µM | U-251 22.9 µM | SK-MEL-5 13.5 µM | SK-MEL-2 6.95 µM | HT-29 18.7 µM | NCI-H522 8.89 µM | SK-OV-3 28 µM | Malme-3M 18.6 µM | A498 17.3 µM | NCI/ADR-RES 6.5 µM | IGROV-1 12 µM

O=C1CCCc2cc3c(cc21)CC1(C3)Cc2cc3c(cc2C1)C(=O)CCC3
inactive: NCI-H226 2.7 µM | OVCAR-8 3.04 µM | UACC-257 2.28 µM | HOP-62 2.29 µM | SN12C 4.46 µM | U-251 1.64 µM | SK-MEL-2 1.57 µM | SK-OV-3 3.52 µM | A498 5.45 µM | IGROV-1 1.38 µM
active: MDA-N 0.214 µM | HL-60 0.368 µM | SF-539 1.12 µM | RPMI-8226 0.746 µM | K562 0.396 µM | SK-MEL-5 0.532 µM | HT-29 0.743 µM | NCI-H522 0.679 µM | Malme-3M 0.798 µM | NCI/ADR-RES 0.769 µM

CC1=CC2(O)OC3(CC2=C(C)C)C(C)CCC13 (centres undefined)
inactive: MDA-N > 100 µM | NCI-H226 > 100 µM | OVCAR-8 > 100 µM | HL-60 > 100 µM | SF-539 > 100 µM | UACC-257 > 100 µM | HOP-62 > 100 µM | SN12C > 100 µM | RPMI-8226 > 100 µM | K562 > 100 µM | U-251 > 100 µM | SK-MEL-5 > 100 µM | SK-MEL-2 > 100 µM | HT-29 > 100 µM | NCI-H522 > 100 µM | SK-OV-3 > 100 µM | Malme-3M > 100 µM | A498 > 100 µM | NCI/ADR-RES > 100 µM | IGROV-1 > 100 µM
